Active and inactive are the calls of the source.
Legend:
[1] = target: Intestinal-type alkaline phosphatase (Mus musculus, UniProt P24822); test: PubChem AID 488785; format: functional
[2] = target: T1, Alkaline phosphatase, tissue-nonspecific isozyme (Homo sapiens, UniProt P05186); test: TNAP enzyme inhibition by screening hits, dose response, selectivity assay for mouse IAP inhibitor project, biochemical, human TNAP, uHTS hits (AID 488906); format: functional
T1 sequence (P05186 whole entry): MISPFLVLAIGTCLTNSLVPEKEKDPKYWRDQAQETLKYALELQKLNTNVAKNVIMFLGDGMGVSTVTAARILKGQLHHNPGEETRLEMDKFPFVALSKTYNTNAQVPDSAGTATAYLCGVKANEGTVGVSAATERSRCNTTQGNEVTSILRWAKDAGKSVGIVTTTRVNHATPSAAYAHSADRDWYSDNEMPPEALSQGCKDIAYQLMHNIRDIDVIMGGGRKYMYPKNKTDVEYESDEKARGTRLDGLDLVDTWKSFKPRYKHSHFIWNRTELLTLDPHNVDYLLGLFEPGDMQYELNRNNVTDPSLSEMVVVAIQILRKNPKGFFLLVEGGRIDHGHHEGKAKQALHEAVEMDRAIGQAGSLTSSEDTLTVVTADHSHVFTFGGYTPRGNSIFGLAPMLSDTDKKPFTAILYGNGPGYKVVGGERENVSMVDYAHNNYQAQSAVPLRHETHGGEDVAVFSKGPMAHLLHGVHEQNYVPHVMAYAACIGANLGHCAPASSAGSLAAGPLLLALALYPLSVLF

[3] = target: Intestinal-type alkaline phosphatase (Homo sapiens, UniProt P09923); test: inhibition of human intestinal alkaline phosphatase – biochemical, dose response (AID 488876); format: functional
[4] = HEp-2 cell cytotoxicity, dose response, cytotoxicity control for RSV inhibitor project, HTS (AID 2410); format: functional; details: human respiratory syncytial virus
cells [5] = test: cells
[6] = target: T2, Short transient receptor potential channel 4 (Mus musculus, UniProt Q9QUQ5); test: mouse TRPC4 channel inhibitors, dose response, cell-based, HEK293 TRPC4/mu-opioid, Fluo-4 calcium (AID 434942); format: functional;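 note: potency of inhibitors blocking the TRPC4 calcium response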
T2 sequence (Q9QUQ5 whole entry): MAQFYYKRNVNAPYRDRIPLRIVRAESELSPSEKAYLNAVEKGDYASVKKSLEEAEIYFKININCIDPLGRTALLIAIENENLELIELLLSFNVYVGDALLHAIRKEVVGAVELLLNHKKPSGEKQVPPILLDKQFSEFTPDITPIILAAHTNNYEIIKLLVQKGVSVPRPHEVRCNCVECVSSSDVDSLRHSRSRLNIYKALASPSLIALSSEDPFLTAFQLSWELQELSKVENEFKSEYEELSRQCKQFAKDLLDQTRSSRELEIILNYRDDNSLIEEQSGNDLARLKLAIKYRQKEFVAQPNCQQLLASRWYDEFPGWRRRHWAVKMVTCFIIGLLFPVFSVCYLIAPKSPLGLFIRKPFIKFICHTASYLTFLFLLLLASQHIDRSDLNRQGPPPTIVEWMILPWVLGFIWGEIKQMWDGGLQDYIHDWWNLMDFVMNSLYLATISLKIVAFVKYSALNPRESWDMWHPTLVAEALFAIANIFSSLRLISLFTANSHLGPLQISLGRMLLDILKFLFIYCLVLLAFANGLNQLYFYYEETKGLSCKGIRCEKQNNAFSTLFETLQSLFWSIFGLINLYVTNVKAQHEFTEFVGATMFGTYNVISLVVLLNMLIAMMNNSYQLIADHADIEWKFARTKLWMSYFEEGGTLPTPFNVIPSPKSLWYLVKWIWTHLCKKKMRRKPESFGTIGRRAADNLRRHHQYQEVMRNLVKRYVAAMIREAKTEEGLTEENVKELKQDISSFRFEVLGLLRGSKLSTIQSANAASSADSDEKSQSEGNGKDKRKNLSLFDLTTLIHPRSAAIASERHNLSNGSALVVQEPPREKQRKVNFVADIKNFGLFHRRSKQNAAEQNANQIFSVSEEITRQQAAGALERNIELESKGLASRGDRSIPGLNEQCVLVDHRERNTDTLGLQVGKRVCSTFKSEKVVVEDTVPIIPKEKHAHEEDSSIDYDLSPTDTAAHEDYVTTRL

[7] = target: T2, Short transient receptor potential channel 4; test: mouse TRPC4 channel activators, dose response, cell-based, HEK293 TRPC4/mu-opioid, Fluo-4 calcium (AID 434937); format: functional
[8] = target: T3, Heat shock factor protein 1 (Mus musculus, UniProt P38532); test: inhibition of MG132-induced HSE-luciferase signal, confirmation, cell-based, NIH3T3, luminescence, dose retest (AID 2382); format: functional;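 note: NIH3T3 fibroblasts with HSF1-driven luciferase reporter stressed by proteasome inhibitor MG132; luminescence from HSF1-driven luciferase expression after 8 hours of MG132 stress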
T3 sequence (P38532 whole entry): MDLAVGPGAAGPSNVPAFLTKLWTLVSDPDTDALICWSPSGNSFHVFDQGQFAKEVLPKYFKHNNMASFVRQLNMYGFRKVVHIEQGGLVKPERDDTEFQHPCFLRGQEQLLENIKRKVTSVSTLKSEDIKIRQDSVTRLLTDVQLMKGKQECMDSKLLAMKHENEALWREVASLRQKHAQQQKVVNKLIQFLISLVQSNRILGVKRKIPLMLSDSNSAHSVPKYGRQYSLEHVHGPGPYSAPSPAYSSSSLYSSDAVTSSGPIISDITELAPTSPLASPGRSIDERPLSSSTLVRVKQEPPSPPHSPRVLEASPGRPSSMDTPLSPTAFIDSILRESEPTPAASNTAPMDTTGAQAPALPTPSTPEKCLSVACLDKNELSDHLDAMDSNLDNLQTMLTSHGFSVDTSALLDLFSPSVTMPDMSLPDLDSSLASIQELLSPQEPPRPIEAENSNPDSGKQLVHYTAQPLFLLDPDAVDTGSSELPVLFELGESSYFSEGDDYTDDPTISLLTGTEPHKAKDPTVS

[9] = Counterscreen for inhibitors of Trypanosoma brucei methionyl tRNA synthetase (MetRS): Luminescence-based cell-based high throughput dose response assay to identify compounds that are cytotoxic to Jurkat human T lymphocyte cells.; format: functional
[10] = target: T4, Methionyl-tRNA synthetase, putative (Trypanosoma brucei brucei, UniProt Q38C91); format: functional, Trypanosoma brucei brucei strain 927/4 GUTat10.1;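 note: Read-out by fluorescence polarization, run as a confirmatory high-throughput counterscreen; potency of MetRS inhibitors measured by reduced AMP formation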
T4 sequence (Q38C91 whole entry): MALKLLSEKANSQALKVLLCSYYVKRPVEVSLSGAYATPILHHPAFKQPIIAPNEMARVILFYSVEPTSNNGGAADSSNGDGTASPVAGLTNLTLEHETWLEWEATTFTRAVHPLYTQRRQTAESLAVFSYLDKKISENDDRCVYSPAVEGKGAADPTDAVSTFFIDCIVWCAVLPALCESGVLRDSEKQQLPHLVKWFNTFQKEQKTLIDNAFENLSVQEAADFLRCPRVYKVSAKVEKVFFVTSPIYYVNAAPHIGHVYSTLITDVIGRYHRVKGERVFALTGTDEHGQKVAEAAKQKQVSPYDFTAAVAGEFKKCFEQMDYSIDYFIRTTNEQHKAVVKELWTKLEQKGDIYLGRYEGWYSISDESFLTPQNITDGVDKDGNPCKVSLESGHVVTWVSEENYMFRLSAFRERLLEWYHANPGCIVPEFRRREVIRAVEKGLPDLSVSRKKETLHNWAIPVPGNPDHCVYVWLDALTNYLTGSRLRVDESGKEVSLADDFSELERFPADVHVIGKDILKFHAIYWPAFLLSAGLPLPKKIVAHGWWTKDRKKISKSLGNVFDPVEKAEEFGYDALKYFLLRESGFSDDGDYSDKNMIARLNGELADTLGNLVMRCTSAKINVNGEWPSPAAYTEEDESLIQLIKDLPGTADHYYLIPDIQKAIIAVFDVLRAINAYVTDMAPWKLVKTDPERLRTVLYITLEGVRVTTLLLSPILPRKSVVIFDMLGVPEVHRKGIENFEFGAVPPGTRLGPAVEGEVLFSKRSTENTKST

Bcl-2-related protein A1 = target: T5, Bcl-2-related protein A1 (Mus musculus, UniProt Q07440); format: functional;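 note: confirmatory dose–response counterscreen on Bfl-1, used to check hits from a UBC13 polyubiquitin inhibitor campaign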
T5 sequence (Q07440 whole entry): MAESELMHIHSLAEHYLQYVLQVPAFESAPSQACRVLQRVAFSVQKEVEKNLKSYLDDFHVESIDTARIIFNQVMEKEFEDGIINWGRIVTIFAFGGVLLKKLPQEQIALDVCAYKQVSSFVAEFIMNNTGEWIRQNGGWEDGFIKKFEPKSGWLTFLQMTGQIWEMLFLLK

[11] = target: T6, Ubiquitin-conjugating enzyme E2 N (Homo sapiens, UniProt P61088); format: functional
T6 sequence (P61088 whole entry): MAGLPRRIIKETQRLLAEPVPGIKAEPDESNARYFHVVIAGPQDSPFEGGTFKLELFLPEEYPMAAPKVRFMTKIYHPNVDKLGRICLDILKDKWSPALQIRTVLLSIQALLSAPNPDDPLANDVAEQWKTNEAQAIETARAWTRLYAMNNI

INS1 = test: beta cell apoptosis inhibitors, cytokine rescue, dose response, luminescence, retest (AID 449756); format: functional, cell-based; details: Rattus norvegicus;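 note: cell death triggered by IL-1 beta plus TNF-alpha plus IFN-gamma mixture; protective hits raise ATP signal compared with cytokine alone wells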
[12] = target: T6, Ubiquitin-conjugating enzyme E2 N; format: functional; remark: listed apart in the source
[13] = AlphaScreen signal interference compounds, dose response, artefact control for ARNT-TACC3 interaction inhibitor project, biochemical, luminescence, cherry-pick (AID 651705); format: functional;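 note: AlphaScreen bead proximity signal that flags compounds interfering with the detection technology; potency reflects signal decrease which marks the compound as an assay artifact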
cells [14] = format: functional
[15] = Vero E6 cell cytotoxicity, dose response, cytotoxicity control for non-replicating M. tuberculosis project, secondary assay (AID 492998); format: functional, VeroE6; details: Vero C1008
[16] = target: T7, Probable nicotinate-nucleotide adenylyltransferase (Staphylococcus aureus (strain N315), UniProt P65502); format: functional, Staphylococcus aureus subsp. aureus N315; details: read-out: IC50_Mean;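 for IC50 Mean: confirmatory dose-response retesting of NadD inhibitor hits first found in an ultra-high-throughput screen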
[17] = target: T7, Probable nicotinate-nucleotide adenylyltransferase; format: functional, Staphylococcus aureus subsp. aureus N315
[18] = target: T8, Small ubiquitin-related modifier 1 (Homo sapiens, UniProt P63165); test: inhibitors of SUMO1 partner interactions, dose response, biochemical, FRET (AID 624383); format: functional; details: read-out: IC50_Mean
[19] = target: T8, Small ubiquitin-related modifier 1; test: inhibitors of SUMO1 peptide binding, dose response, biochemical, fluorescence polarization, uHTS hits (AID 624382); format: functional; details: read-out: IC50_Mean
[20] = target: T9, Endoribonuclease toxin MazF (Escherichia coli K-12, UniProt P0AE70); test: fluorescent RNA oligo signal without MazF, dose response, counter-screen for MazEF activator project, biochemical, fluorescence, single-stranded RNase substrate (AID 588502); format: functional
T9 sequence (P0AE70 whole entry): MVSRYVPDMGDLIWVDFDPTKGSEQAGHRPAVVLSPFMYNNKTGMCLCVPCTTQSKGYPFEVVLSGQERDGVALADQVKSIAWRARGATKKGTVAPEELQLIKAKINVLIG

[21] = target: T9, Endoribonuclease toxin MazF; test: MazF toxin RNase activators, dose response, biochemical, fluorescence, single-stranded RNA substrate, uHTS hits (AID 588481); format: functional

T8 sequence (P63165 whole entry): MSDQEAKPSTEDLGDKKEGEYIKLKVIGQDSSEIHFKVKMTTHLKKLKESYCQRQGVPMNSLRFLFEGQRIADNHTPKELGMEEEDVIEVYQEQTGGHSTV
Sequence of Intestinal-type alkaline phosphatase (Mus musculus, UniProt P24822) (P24822 whole entry): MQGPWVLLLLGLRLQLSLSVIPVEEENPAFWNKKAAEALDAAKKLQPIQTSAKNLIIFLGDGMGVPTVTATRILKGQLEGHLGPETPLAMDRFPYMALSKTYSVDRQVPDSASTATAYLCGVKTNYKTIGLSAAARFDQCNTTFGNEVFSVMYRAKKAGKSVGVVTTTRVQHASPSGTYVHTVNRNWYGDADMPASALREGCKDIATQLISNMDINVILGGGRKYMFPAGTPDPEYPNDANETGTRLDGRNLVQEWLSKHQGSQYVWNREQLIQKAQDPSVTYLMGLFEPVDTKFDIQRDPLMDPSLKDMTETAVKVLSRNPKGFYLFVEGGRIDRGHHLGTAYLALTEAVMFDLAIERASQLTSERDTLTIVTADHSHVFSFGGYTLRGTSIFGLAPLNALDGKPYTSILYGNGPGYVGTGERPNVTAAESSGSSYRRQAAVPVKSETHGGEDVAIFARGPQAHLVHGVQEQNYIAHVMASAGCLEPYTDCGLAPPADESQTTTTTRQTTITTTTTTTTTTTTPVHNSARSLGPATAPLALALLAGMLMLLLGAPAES
Sequence of Intestinal-type alkaline phosphatase (Homo sapiens, UniProt P09923) (P09923 whole entry): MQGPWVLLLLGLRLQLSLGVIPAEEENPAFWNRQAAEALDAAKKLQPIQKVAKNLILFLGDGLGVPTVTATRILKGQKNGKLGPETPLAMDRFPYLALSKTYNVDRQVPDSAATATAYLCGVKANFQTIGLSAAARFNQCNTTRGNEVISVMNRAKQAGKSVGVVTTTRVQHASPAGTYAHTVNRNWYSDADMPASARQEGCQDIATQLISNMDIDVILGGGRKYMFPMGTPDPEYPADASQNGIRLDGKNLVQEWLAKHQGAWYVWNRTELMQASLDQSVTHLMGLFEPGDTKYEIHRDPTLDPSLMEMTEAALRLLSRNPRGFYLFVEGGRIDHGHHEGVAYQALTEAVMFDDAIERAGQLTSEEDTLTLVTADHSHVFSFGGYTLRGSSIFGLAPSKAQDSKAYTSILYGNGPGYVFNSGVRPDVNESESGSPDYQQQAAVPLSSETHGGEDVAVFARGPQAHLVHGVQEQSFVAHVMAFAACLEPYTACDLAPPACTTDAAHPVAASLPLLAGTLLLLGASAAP
T7 sequence (P65502 whole entry): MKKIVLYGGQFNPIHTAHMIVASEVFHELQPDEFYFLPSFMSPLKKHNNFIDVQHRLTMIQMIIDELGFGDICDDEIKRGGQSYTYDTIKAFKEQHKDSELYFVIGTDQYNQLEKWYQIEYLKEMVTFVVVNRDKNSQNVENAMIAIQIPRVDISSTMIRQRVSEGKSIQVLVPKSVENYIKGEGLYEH

## Cc1ccc(S(=O)(=O)N2CCC(C(=O)Nc3ccc(C(C)C)cc3)CC2)cc1
[1]
  IC50: 7.81 µM (active)
[2]
  IC50: > 100 µM (inactive)
[3]
  IC50: > 100 µM (inactive)
[4]
  CC50: 13 µM (active)
Cells [5]
  IC50: 40.7 µM (active)

## COc1ccc(/C=C/C(=O)Nc2ccccc2C(=O)NCC(c2ccc(OC)cc2)N(C)C)cc1 (configuration not stated)
[6]
  EC50: 188 nM (active)
[7]
  EC50: 421 nM (active)
[8]
  EC50: > 195 µM (not active)

## CCOc1ccccc1CNC(=O)CCNS(=O)(=O)c1ccc2nc(O)oc2c1
[1]
  IC50: 2.65 µM (active)
[2]
  IC50: 22.7 µM (active)
[3]
  IC50: > 100 µM (inactive)

## COc1ccccc1NS(=O)(=O)c1cc(NC(=O)Nc2ccccc2)ccc1N1CCCCC1
[9]
  IC50: 83.3 µM (inactive)
[10]
  IC50: 19.7 µM (inactive)

## CCN1CCN(Cc2ccc(NC(=O)c3cc(NC(=O)c4cncc(-c5ccc(C#N)cc5)c4)cc(OC)c3)cc2C(F)(F)F)CC1
Bcl-2-related protein A1
  IC50: 8.76 µM (active)
[11]
  IC50: 10.9 µM (active)
INS1
  AC50: 8.2 µM (active)
[12]
  IC50: 6.69 µM (active)
[8]
  EC50: > 195 µM (not active)

## O=C(Nc1nnc(-c2ccccc2Cl)o1)c1cccnc1
[13]
  AC50: 91.9 µM (active)
Cells [14]
  IC50: 8.68 µM (active)
[15]
  CC50: > 20 µM (active)

## NCCc1c[nH]cn1 [HISTAMINE]
[13]
  AC50: 106 µM (active)

## CC(C)C[C@@H](CNCC(=O)[C@H](CC(=O)O)NC(=O)c1nc[nH]c1C(=O)N[C@H](CN)CC(C)C)NC(=O)c1[nH]cnc1C(=O)N[C@@H](Cc1ccccc1)C(=O)O
[16]
  IC50: 44 µM (active)
[17]
  IC50: 12.4 µM (active)
[18]
  IC50: 5.92 µM (active)
[19]
  IC50: 50.1 µM (inactive)

## C#CCN1c2ccccc2Sc2cccnc21
[20]
  EC50: 85.6 µM (inactive)
[21]
  EC50: > 99 µM (inactive)

## O=c1[nH]cnc2scc(-c3ccc(-c4ccccc4)cc3)c12
[20]
  EC50: > 99 µM (inactive)
[21]
  EC50: > 99 µM (inactive)

## Nc1nccnc1C(=O)OCC(=O)Nc1ccc2[nH]c(O)nc2c1
[18]
  IC50: 11.9 µM (active)
[19]
  IC50: > 66.6 µM (inactive)
